Source: patent publication US20240041042A1, “1-(PYRIDYL)-5-AZINYLPYRAZOLE DERIVATIVES, AND THEIR USE FOR CONTROL OF UNDESIRED PLANT GROWTH” (Bayer Aktiengesellschaft, priority 2020, published 2024)
Where two headings read alike, the source gives them in different places.

Experiments:
Format in all cases: in vivo
[1] = tested on: Abutilon theophrasti (ABUTH); test: Pre-emergence herbicidal action against ABUTH; details: Dosage column 320 g/ha (title prints 3200 g/ha); scored visually after about 3 weeks; 100% = plants have died
How it was run: (§1)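 Read-out is visual percent damage relative to untreated pots, with 100% meaning dead plants and 0% meaning no difference, assessed roughly three weeks after treatment. Compounds were applied pre-emergence to the covering soil at up to 320 g/ha.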

Oryza sativa (ORYSA) = details: crop plant compatibility
How it was run: (§2)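 Test crops were treated 2 to 3 weeks after sowing, once they reached one leaf, by spraying compound in water with 0.5% additive at 600 l/ha. Visual scoring compared them with untreated controls roughly 3 weeks on, and appendices a, b and c denote different doses.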

Zea mays (ZEAMX) = details: 20 g/ha, ZEAMX, effect in comparison to untreated controls
How it was run: as §2

[2] = tested on: Verconica persica (VERPE); test: Pre-emergence herbicidal action against VERPE
How it was run: as §1

[3] = tested on: Alopecurus myosuroides (ALOMY); test: Pre-emergence herbicidal action against ALOMY; details: scored visually after about 3 weeks, 100% = plants have died
How it was run: as §1

Avena fatua (AVEFA) [4] = test: Post-emergence herbicidal action against AVEFA; details: visual rating about 3 weeks after treatment
How it was run: (§3)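 Doses of 320 g/ha or lower, suffixes a, b and c marking different dosages, were applied post-emergence at the one-leaf stage in 600 l/ha water with 0.5% additive. Damage was assessed visually after about 3 weeks in the greenhouse.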

Setaria viridis (SETVI) [5] = test: Pre-emergence herbicidal action against SETVI
How it was run: as §1

[6] = tested on: Echinochloa crus-galli (ECHCG); test: Post-emergence herbicidal action against ECHCG
How it was run: as §3

[7] = tested on: Pharbitis purpurea (PHBPU); test: Pre-emergence herbicidal action against PHBPU
How it was run: as §1

[8] = tested on: Amaranthus retroflexus (AMARE); test: Pre-emergence herbicidal action against AMARE; details: visual scoring after about 3 weeks vs untreated controls
How it was run: as §1

Viola tricolor (VIOTR) [9] = test: Pre-emergence herbicidal action against VIOTR
How it was run: as §1

[10] = tested on: Polygonum convolvulus (POLCO); test: Pre-emergence herbicidal action against POLCO
How it was run: as §1

[11] = tested on: Alopecurus myosuroides (ALOMY); test: Post-emergence herbicidal action against ALOMY; details: visual rating about 3 weeks after treatment vs untreated controls (100% = plants have died, 0% = like control plants)
How it was run: as §3

[12] = tested on: Echinochloa crus-galli (ECHCG); test: Pre-emergence herbicidal action against ECHCG
How it was run: as §1

Lolium rigidum (LOLRI) [13] = test: Pre-emergence herbicidal action against LOLRI
How it was run: as §1

Lolium rigidum (LOLRI) [14] = test: Post-emergence herbicidal action against LOLRI
How it was run: as §3

[15] = tested on: Matricaria inodora (MATIN); test: Pre-emergence herbicidal action against MATIN
How it was run: as §1

[16] = tested on: Matricaria inodora (MATIN); test: Post-emergence herbicidal action against MATIN
How it was run: as §3

Avena fatua (AVEFA) [17] = test: Pre-emergence herbicidal action against AVEFA; details: visual scoring after about 3 weeks vs untreated controls
How it was run: as §1

[18] = tested on: Verconica persica (VERPE); test: Post-emergence herbicidal action against VERPE
How it was run: as §3

[19] = tested on: Pharbitis purpurea (PHBPU); test: Post-emergence herbicidal action against PHBPU
How it was run: as §3

Setaria viridis (SETVI) [20] = test: Post-emergence herbicidal action against SETVI
How it was run: as §3

Viola tricolor (VIOTR) [21] = test: Post-emergence herbicidal action against VIOTR
How it was run: as §3

[22] = 80 g/ha, effect in comparison to untreated controls

SMILES	Pre-emergence action against ABUTH [1] [%]	Pre-emergence action against VERPE in % ([2]; dosage 320 g/ha) [%]	Pre-emergence action against ALOMY ([3]; 320 g/ha) [%]	Pre-emergence action against SETVI in % (Setaria viridis (SETVI) [5]; dosage 80 g/ha) [%]	Pre-emergence action against SETVI in % (Setaria viridis (SETVI) [5]; dosage 320 g/ha) [%]	Post-emergence action against ECHCG in % ([6]; dosage 80 g/ha) [%]	Pre-emergence action against PHBPU in % ([7]; dosage 320 g/ha) [%]	Pre-emergence action against AMARE in % ([8]; 80 g/ha) [%]	Pre-emergence action against AMARE in % ([8]; 320 g/ha) [%]	Pre-emergence action against VIOTR in % (Viola tricolor (VIOTR) [9]; 320 g/ha, Viola tricolor) [%]	Pre-emergence action against VIOTR in % (Viola tricolor (VIOTR) [9]; dosage 80 g/ha) [%]	Pre-emergence action against POLCO in % ([10]; dosage 80 g/ha) [%]	Pre-emergence action against POLCO in % ([10]; dosage 320 g/ha) [%]	Pre-emergence action against ECHCG in % ([12]; dosage 80 g/ha) [%]	Pre-emergence action against ECHCG in % ([12]; dosage 320 g/ha) [%]	Pre-emergence action against LOLRI in % (Lolium rigidum (LOLRI) [13]; dosage 80 g/ha) [%]	Pre-emergence action against LOLRI in % (Lolium rigidum (LOLRI) [13]; dosage 320 g/ha) [%]	Pre-emergence action against MATIN in % ([15]; dosage 320 g/ha) [%]	Pre-emergence action against AVEFA in % (Avena fatua (AVEFA) [17]; 320 g/ha) [%]	Post-emergence action against VERPE in % ([18]; dosage 80 g/ha) [%]	also measured
CCOC(=O)[C@@H](C)Oc1nn(-c2ncccc2F)c(-c2ccc(F)nc2)c1Br [Example I-33]	80	100	100	90	100	90	90	90	100	100	100	90	100	90	100	90	100	90	100	90	Post-emergence action against ORYSA in % (Oryza sativa (ORYSA); 20 g/ha, effect vs untreated controls): 0%; Post-emergence action against ORYSA in % (Oryza sativa (ORYSA); [22]): 10%; Post-emergence action against ZEAMX in % (crop plant compatibility) (Zea mays (ZEAMX)): 10%; Pre-emergence action against ALOMY ([3]; 80 g/ha): 100%; Post-emergence action against AVEFA in % (Avena fatua (AVEFA) [4]; 80 g/ha): 90%; Post-emergence action against ALOMY in % ([11]; 80 g/ha): 90%; Post-emergence action against LOLRI in % (Lolium rigidum (LOLRI) [14]; dosage 80 g/ha): 80%; Post-emergence action against MATIN in % ([16]; dosage 80 g/ha): 80%; Pre-emergence action against AVEFA in % (Avena fatua (AVEFA) [17]; 80 g/ha): 80%
C[C@@H](Oc1nn(-c2nc(F)ccc2F)c(-c2cncc(F)c2)c1Br)C(=O)O [Example I-155]	90	100	100	80	100	80	90	90	100	100	100	90	90	90	100	90	100	90	90	80	Post-emergence action against PHBPU in % ([19]; dosage 80 g/ha): 80%; Post-emergence action against PHBPU in % ([19]; dosage 320 g/ha): 90%; Post-emergence action against ORYSA in % (Oryza sativa (ORYSA); [22]): 10%; Post-emergence action against AVEFA in % (Avena fatua (AVEFA) [4]; 320 g/ha): 80%; Post-emergence action against ECHCG in % ([6]; dosage 320 g/ha): 80%; Pre-emergence action against PHBPU in % ([7]; dosage 80 g/ha): 90%; Post-emergence action against ALOMY in % ([11]; 320 g/ha): 80%; Post-emergence action against SETVI in % (Setaria viridis (SETVI) [20]; dosage 80 g/ha): 80%; Post-emergence action against SETVI in % (Setaria viridis (SETVI) [20]; dosage 320 g/ha): 90%; Post-emergence action against LOLRI in % (Lolium rigidum (LOLRI) [14]; dosage 320 g/ha): 80%; Pre-emergence action against MATIN in % ([15]; dosage 80 g/ha): 90%; Post-emergence action against MATIN in % ([16]; dosage 320 g/ha): 80%; Post-emergence action against VERPE in % ([18]; 320 g/ha, VERPE): 80%; Post-emergence action against VIOTR in % (Viola tricolor (VIOTR) [21]; 80 g/ha): 80%; Post-emergence action against VIOTR in % (Viola tricolor (VIOTR) [21]; 320 g/ha): 80%
C[C@@H](Oc1nn(-c2ncccc2F)c(-c2ccc(F)nc2)c1C(F)(F)F)C(=O)O [Example I-317]	90	100	100	80	90	80	90	100	100	100	100	100	100	100	100	100	100	100	100	90	Post-emergence action against PHBPU in % ([19]; dosage 320 g/ha): 80%; Pre-emergence action against VERPE in % ([2]; dosage 80 g/ha): 80%; Pre-emergence action against ALOMY ([3]; 80 g/ha): 100%; Post-emergence action against AVEFA in % (Avena fatua (AVEFA) [4]; 80 g/ha): 90%; Post-emergence action against AVEFA in % (Avena fatua (AVEFA) [4]; 320 g/ha): 90%; Post-emergence action against ECHCG in % ([6]; dosage 320 g/ha): 90%; Pre-emergence action against PHBPU in % ([7]; dosage 80 g/ha): 90%; Post-emergence action against ALOMY in % ([11]; 80 g/ha): 100%; Post-emergence action against ALOMY in % ([11]; 320 g/ha): 100%; Post-emergence action against LOLRI in % (Lolium rigidum (LOLRI) [14]; dosage 80 g/ha): 90%; Post-emergence action against LOLRI in % (Lolium rigidum (LOLRI) [14]; dosage 320 g/ha): 90%; Pre-emergence action against MATIN in % ([15]; dosage 80 g/ha): 100%; Post-emergence action against MATIN in % ([16]; dosage 80 g/ha): 90%; Post-emergence action against MATIN in % ([16]; dosage 320 g/ha): 90%; Pre-emergence action against AVEFA in % (Avena fatua (AVEFA) [17]; 80 g/ha): 90%; Post-emergence action against VERPE in % ([18]; 320 g/ha, VERPE): 90%; Post-emergence action against VIOTR in % (Viola tricolor (VIOTR) [21]; 80 g/ha): 90%; Post-emergence action against VIOTR in % (Viola tricolor (VIOTR) [21]; 320 g/ha): 90%
